Results: US20080153896A1, “Polymorphic Forms of an HMG-CoA Reductase Inhibitor and Uses Thereof” (priority 2006, published 2008)

Test: Stability (integrity) testing of amorphous and polymorphic form under storage conditions, RP-HPLC
Type: physicochemical
Parameters: key to Impurity RRT 0.738 / Impurity RRT 0.949 / Impurity RRT 1.050 / Impurity RRT 1.550 / Impurity RRT 0.136 / Impurity RRT 0.720 / Impurity RRT 0.706 / Impurity RRT 1.18 / Impurity RRT 1.826: % of total UV absorption (HPLC peak area)
Outline: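 Amorphous form and three batches of polymorphic Form I of the hemi calcium salt were stored under different atmospheric conditions. Purity measured by RP-HPLC on C18 with UV detection, drug as percent of total absorption; total impurity from summed impurity peak areas, impurities identified by relative retention time.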

[1] = 25° C./60% RH 12M, hemi calcium salt
[2] = 30° C./65% RH 1M, hemi calcium salt
[3] = 30° C./65% RH 2M, hemi calcium salt
[4] = 30° C./65% RH 3M, hemi calcium salt
[5] = 30° C./65% RH 6M, hemi calcium salt
[6] = 30° C./65% RH 9M, hemi calcium salt
[7] = 30° C./65% RH 12M, hemi calcium salt
[8] = 40° C./75% RH 1M, hemi calcium salt
[9] = 40° C./75% RH 2M, hemi calcium salt
[10] = 40° C./75% RH 3M, hemi calcium salt
[11] = 40° C./75% RH 6M, hemi calcium salt
[12] = Initial, listed as Batch 1 of Polymorphic Form I, hemi calcium salt

Highest Impurity [1]: 0.412
Impurity RRT 0.935 [1]: 0.412
Impurity RRT 1.045 [1]: 0.396
Impurity RRT 1.640 [1]: 0.051
Total Impurity [1]: 1.318
Water [1]: 5.47 % W/W
Description (30° C./65% RH 1M): White
Impurity RRT 1.094 (30° C./65% RH 1M): 0.149
Impurity RRT 1.437 (30° C./65% RH 1M): 0.161
Impurity RRT 1.593 (30° C./65% RH 1M): 0.061
Impurity RRT 1.694 (30° C./65% RH 1M): 0.060
Water (30° C./65% RH 1M): 4.16 % W/W
Assay [2]: 98.25 % W/W
Highest Impurity [2]: 0.370
Impurity RRT 0.935 [2]: 0.370
Impurity RRT 1.045 [2]: 0.300
Impurity RRT 1.64 [2]: 0.047
Total Impurity [2]: 1.228
Description (30° C./65% RH 2M): White
Impurity RRT 1.094 (30° C./65% RH 2M): 0.16
Impurity RRT 1.180 (30° C./65% RH 2M): 0.044
Impurity RRT 1.437 (30° C./65% RH 2M): 0.163
Impurity RRT 1.593 (30° C./65% RH 2M): 0.080
Impurity RRT 1.694 (30° C./65% RH 2M): 0.062
Assay [3]: 98.23 % W/W
Highest Impurity [3]: 0.390
Impurity RRT 0.935 [3]: 0.390
Impurity RRT 1.045 [3]: 0.374
Impurity RRT 1.64 [3]: 0.044
Total Impurity [3]: 1.320
Water [3]: 3.85 % W/W
Description (30° C./65% RH 3M): White
Impurity RRT 1.094 (30° C./65% RH 3M): 0.167
Impurity RRT 1.437 (30° C./65% RH 3M): 0.168
Impurity RRT 1.593 (30° C./65% RH 3M): 0.081
Impurity RRT 1.694 (30° C./65% RH 3M): 0.066
Assay [4]: 98.15 % W/W
Highest Impurity [4]: 0.416
Impurity RRT 0.935 [4]: 0.416
Impurity RRT 1.045 [4]: 0.405
Impurity RRT 1.64 [4]: 0.048
Total Impurity [4]: 1.350
Water [4]: 4.73 % W/W
Description (30° C./65% RH 6M): White
Impurity RRT 0.136 (30° C./65% RH 6M): 0.049
Impurity RRT 1.094 (30° C./65% RH 6M): 0.140
Impurity RRT 1.437 (30° C./65% RH 6M): 0.150
Impurity RRT 1.593 (30° C./65% RH 6M): 0.077
Impurity RRT 1.694 (30° C./65% RH 6M): 0.044
Assay [5]: 98.08 % W/W
Highest Impurity [5]: 0.361
Impurity RRT 0.935 [5]: 0.355
Impurity RRT 1.045 [5]: 0.361
Impurity RRT 1.640 [5]: 0.042
Total Impurity [5]: 1.218
Water [5]: 5.62 % W/W
Description (30° C./65% RH 9M): White
Impurity RRT 0.136 (30° C./65% RH 9M): 0.056
Impurity RRT 1.094 (30° C./65% RH 9M): 0.134
Impurity RRT 1.437 (30° C./65% RH 9M): 0.147
Impurity RRT 1.593 (30° C./65% RH 9M): 0.080
Impurity RRT 1.694 (30° C./65% RH 9M): 0.051
Assay [6]: 98.15 % W/W
Highest Impurity [6]: 0.387
Impurity RRT 0.935 [6]: 0.387
Impurity RRT 1.045 [6]: 0.351
Impurity RRT 1.640 [6]: 0.033
Total Impurity [6]: 1.239
Water [6]: 5.55 % W/W
Impurity RRT 0.136 (30° C./65% RH 12M): 0.240
Impurity RRT 1.094 (30° C./65% RH 12M): 0.120
Impurity RRT 1.437 (30° C./65% RH 12M): 0.148
Impurity RRT 1.593 (30° C./65% RH 12M): 0.075
Impurity RRT 1.694 (30° C./65% RH 12M): 0.055
Assay [7]: 98.09 % W/W
Highest Impurity [7]: 0.375
Impurity RRT 0.935 [7]: 0.375
Impurity RRT 1.045 [7]: 0.372
Impurity RRT 1.640 [7]: 0.044
Total Impurity [7]: 1.492
Water [7]: 5.91 % W/W
Description (40° C./75% RH 1M): White
Impurity RRT 1.094 (40° C./75% RH 1M): 0.167
Impurity RRT 1.437 (40° C./75% RH 1M): 0.155
Impurity RRT 1.593 (40° C./75% RH 1M): 0.085
Impurity RRT 1.694 (40° C./75% RH 1M): 0.071
Assay [8]: 98.22 % W/W
Highest Impurity [8]: 0.405
Impurity RRT 0.935 [8]: 0.405
Impurity RRT 1.045 [8]: 0.39
Impurity RRT 1.64 [8]: 0.05
Total Impurity [8]: 1.323
Water [8]: 4.52 % W/W
Description (40° C./75% RH 2M): White
Impurity RRT 1.094 (40° C./75% RH 2M): 0.164
Impurity RRT 1.180 (40° C./75% RH 2M): 0.049
Impurity RRT 1.437 (40° C./75% RH 2M): 0.169
Impurity RRT 1.593 (40° C./75% RH 2M): 0.082
Impurity RRT 1.694 (40° C./75% RH 2M): 0.067
Assay [9]: 98.16 % W/W
Highest Impurity [9]: 0.408
Impurity RRT 0.935 [9]: 0.407
Impurity RRT 1.045 [9]: 0.408
Impurity RRT 1.64 [9]: 0.046
Total Impurity [9]: 1.39
Water [9]: 4.63 % W/W
Description (40° C./75% RH 3M): White
Impurity RRT 1.094 (40° C./75% RH 3M): 0.162
Impurity RRT 1.437 (40° C./75% RH 3M): 0.167
Impurity RRT 1.593 (40° C./75% RH 3M): 0.094
Impurity RRT 1.694 (40° C./75% RH 3M): 0.056
Assay [10]: 98.11 % W/W
Highest Impurity [10]: 0.403
Impurity RRT 0.935 [10]: 0.403
Impurity RRT 1.045 [10]: 0.396
Impurity RRT 1.64 [10]: 0.049
Total Impurity [10]: 1.330
Water [10]: 4.64 % W/W
Description (40° C./75% RH 6M): White
Impurity RRT 1.094 (40° C./75% RH 6M): 0.146
Impurity RRT 1.437 (40° C./75% RH 6M): 0.151
Impurity RRT 1.593 (40° C./75% RH 6M): 0.098
Impurity RRT 1.694 (40° C./75% RH 6M): 0.074
Assay [11]: 98.22 % W/W
Highest Impurity [11]: 0.391
Impurity RRT 0.935 [11]: 0.391
Impurity RRT 1.045 [11]: 0.351
Impurity RRT 1.640 [11]: 0.031
Total Impurity [11]: 1.242
Water [11]: 5.55 % W/W
Description (Initial): White
Impurity RRT 0.720 (Initial): 0.046
Impurity RRT 1.094 (Initial): 0.142
Impurity RRT 1.437 (Initial): 0.162
Impurity RRT 1.593 (Initial): 0.079
Impurity RRT 1.694 (Initial): 0.068
Assay [12]: 98.48 % W/W
Highest Impurity [12]: 0.411
Impurity RRT 1.045 [12]: 0.385
Impurity RRT 1.64 [12]: 0.046
Total Impurity [12]: 1.340
Water [12]: 4.55 % W/W
Structure (SMILES): CC(C)c1c(C(=O)Nc2ccc(CO)cc2)c(-c2ccccc2)c(-c2ccc(F)cc2)n1CC[C@@H](O)C[C@@H](O)CC(=O)[O-].CC(C)c1c(C(=O)Nc2ccc(CO)cc2)c(-c2ccccc2)c(-c2ccc(F)cc2)n1CC[C@@H](O)C[C@@H](O)CC(=O)[O-].[Ca+2] [PP00405, (3R, 5R)-7-[2-(4-fluorophenyl)-5-isopropyl-3-phenyl-4-[(4-hydroxymethylphenylamino)carbonyl]-pyrrol-1-yl]-3,5-dihydroxy-heptanoic acid, hemi calcium salt]
